Results from PubChem BioAssay AID248 (DTP/NCI, 2004).
Values joined by “and” are separate entries in the source; they are usually repeats but may differ in a detail not shown here. Identical values can stand only once. Inconclusive results and toxic doses are left out. No stated cut-off is given here; in the data, active means T/C of 150% or more; inactive means T/C below 125%.

System: L1210 leukemia ip in BDF1 mice, survival T/C
Test: NCI In Vivo Anticancer Drug Screen. Data for tumor model L1210 Leukemia (intraperitoneal) in B6D2F1 (BDF1) mice
Conditions: endpoint: mean survival time, higher = longer survival
Procedure, shortened: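 Read-out is survival time, reported as the treated-group measurement over the vehicle-control measurement.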

[1] = dose: 25.0 mg/kg/injection, schedule: Q01DX009 (ip), vehicle: Klucel (hydroxypropylcellulose) (HPC)
[2] = dose: 50.0 mg/kg/injection, schedule: Q01DX009 (ip), vehicle: Klucel (hydroxypropylcellulose) (HPC)
[3] = dose: 25.0 mg/kg/injection, schedule: Q01DX009 (ip), vehicle: saline with Tween-80
[4] = dose: 50.0 mg/kg/injection, schedule: Q01DX009 (ip), vehicle: saline with Tween-80
[5] = dose: 100.0 mg/kg/injection, schedule: Q01DX009 (ip), vehicle: saline with Tween-80
[6] = dose: 100.0 mg/kg/injection, schedule: Q04DX003 (ip), vehicle: Klucel (hydroxypropylcellulose) (HPC)
[7] = dose: 200.0 mg/kg/injection, schedule: Q04DX003 (ip), vehicle: Klucel (hydroxypropylcellulose) (HPC)
[8] = dose: 100.0 mg/kg/injection, schedule: Q04DX003 (ip), vehicle: saline with Tween-80

Measured: T/C

CCCCCCCCCCCCC/C=N\N=C(N)N
inactive: dose: 15.0 mg/kg/injection, schedule: Q01DX Z (ip), vehicle: saline 96 % of control | dose: 30.0 mg/kg/injection, schedule: Q01DX Z (ip), vehicle: saline 89 % of control | dose: 60.0 mg/kg/injection, schedule: Q01DX Z (ip), vehicle: saline 89 % of control | dose: 60.0 mg/kg/injection, schedule: Q01DX Z (oral), vehicle: saline 98 % of control | dose: 120.0 mg/kg/injection, schedule: Q01DX Z (ip), vehicle: saline 96 % of control | dose: 120.0 mg/kg/injection, schedule: Q01DX Z (oral), vehicle: saline 101 % of control | dose: 240.0 mg/kg/injection, schedule: Q01DX Z (oral), vehicle: saline 101 % of control | dose: 480.0 mg/kg/injection, schedule: Q01DX Z (oral), vehicle: saline 98 % of control

CC12CC3CC(C)(C1)CC(SCCN=C(N)CCl)(C3)C2
inactive: dose: 10.0 mg/kg/injection, schedule: Q04DX002 (ip), vehicle: Klucel (hydroxypropylcellulose) (HPC) 105 % of control | dose: 20.0 mg/kg/injection, schedule: Q04DX002 (ip), vehicle: Klucel (hydroxypropylcellulose) (HPC) 102 % of control | dose: 40.0 mg/kg/injection, schedule: Q04DX002 (ip), vehicle: Klucel (hydroxypropylcellulose) (HPC) 110 % of control

CCCCOC(=O)c1ccc(NC(=O)Nc2cc([N+](=O)[O-])ccc2Cl)cc1
inactive: [1] 113 % of control | [2] 100 % of control | dose: 100.0 mg/kg/injection, schedule: Q01DX009 (ip), vehicle: Klucel (hydroxypropylcellulose) (HPC) 90 % of control

O=C(O)C(Br)C(Br)C(=O)Nc1cccc2ccccc12 (stereo not drawn)
inactive: [3] 97 % of control | [4] 96 % of control | [5] 96 % of control and 98 % of control

Nc1nc(N)c2[nH]c(CO)nc2n1
inactive: dose: 75.0 mg/kg/injection, schedule: Q01DX001 (ip), vehicle: carboxymethylcellulose (CMC) 110 % of control | dose: 150.0 mg/kg/injection, schedule: Q01DX001 (ip), vehicle: carboxymethylcellulose (CMC) 97 % of control | dose: 300.0 mg/kg/injection, schedule: Q01DX001 (ip), vehicle: carboxymethylcellulose (CMC) 105 % of control

Cc1ncc(C(=O)O)c2c1OC(C)(C)OC2
inactive: dose: 50.0 mg/kg/injection, schedule: Q01DX001 (ip), vehicle: saline 100 % of control | dose: 100.0 mg/kg/injection, schedule: Q01DX001 (ip), vehicle: saline 91 % of control | dose: 200.0 mg/kg/injection, schedule: Q01DX001 (ip), vehicle: saline 100 % of control | dose: 400.0 mg/kg/injection, schedule: Q01DX001 (ip), vehicle: saline 94 % of control

CCOC(=O)N(C(=S)Nc1ccccc1)c1nc(C)cs1
inactive: dose: 100.0 mg/kg/injection, schedule: Q01DX001 (ip), vehicle: gum acacia 100 % of control | dose: 200.0 mg/kg/injection, schedule: Q01DX001 (ip), vehicle: gum acacia 111 % of control | dose: 400.0 mg/kg/injection, schedule: Q01DX001 (ip), vehicle: gum acacia 97 % of control

c1ccc(C2=C(c3ccccc3)CSSC2)cc1
inactive: dose: 50.0 mg/kg/injection, schedule: Q04DX003 (ip), vehicle: Klucel (hydroxypropylcellulose) (HPC) 100 % of control | [6] 100 % of control | [7] 100 % of control

CN1CCC23CCCCC2C1Cc1ccc(O)cc13 (stereo not drawn)
inactive: dose: 75.0 mg/kg/injection, schedule: Q01DX001 (ip), vehicle: saline 95 % of control

CN(C)C(=S)[S][Sn]([c]1ccccc1)([c]1ccccc1)[c]1ccccc1
inactive: dose: 1.25 mg/kg/injection, schedule: Q01DX009 (ip), vehicle: saline with Tween-80 88 % of control | dose: 1.25 mg/kg/injection, schedule: Q04DX003 (ip), vehicle: saline with Tween-80 99 % of control | dose: 2.5 mg/kg/injection, schedule: Q01DX009 (ip), vehicle: saline with Tween-80 93 % of control | dose: 2.5 mg/kg/injection, schedule: Q04DX003 (ip), vehicle: saline with Tween-80 99 % of control | dose: 5.0 mg/kg/injection, schedule: Q01DX001 (ip), vehicle: steriod suspending solution 95 % of control | dose: 5.0 mg/kg/injection, schedule: Q01DX009 (ip), vehicle: Klucel (hydroxypropylcellulose) (HPC) 101 % of control | dose: 5.0 mg/kg/injection, schedule: Q01DX009 (ip), vehicle: saline with Tween-80 106 % of control | dose: 5.0 mg/kg/injection, schedule: Q04DX003 (ip), vehicle: Klucel (hydroxypropylcellulose) (HPC) 92 % of control | dose: 5.0 mg/kg/injection, schedule: Q04DX003 (ip), vehicle: saline with Tween-80 98 % of control | dose: 10.0 mg/kg/injection, schedule: Q01DX001 (ip), vehicle: steriod suspending solution 101 % of control | dose: 10.0 mg/kg/injection, schedule: Q01DX009 (ip), vehicle: Klucel (hydroxypropylcellulose) (HPC) 92 % of control | dose: 10.0 mg/kg/injection, schedule: Q04DX003 (ip), vehicle: Klucel (hydroxypropylcellulose) (HPC) 97 % of control | dose: 20.0 mg/kg/injection, schedule: Q01DX009 (ip), vehicle: Klucel (hydroxypropylcellulose) (HPC) 103 % of control | dose: 20.0 mg/kg/injection, schedule: Q04DX003 (ip), vehicle: Klucel (hydroxypropylcellulose) (HPC) 91 % of control | dose: 40.0 mg/kg/injection, schedule: Q01DX001 (ip), vehicle: steriod suspending solution 92 % of control

CNc1ccc(/C=N/CCl)cc1
inactive: [8] 92 % of control | dose: 200.0 mg/kg/injection, schedule: Q04DX003 (ip), vehicle: saline with Tween-80 91 % of control | dose: 400.0 mg/kg/injection, schedule: Q04DX003 (ip), vehicle: saline with Tween-80 96 % of control

O=C1NC2C3CC(c4ccccc43)C12 (stereo not drawn)
inactive: dose: 100.0 mg/kg/injection, schedule: Q04DX002 (ip), vehicle: Klucel (hydroxypropylcellulose) (HPC) 101 % of control | dose: 200.0 mg/kg/injection, schedule: Q04DX002 (ip), vehicle: Klucel (hydroxypropylcellulose) (HPC) 108 % of control | dose: 400.0 mg/kg/injection, schedule: Q04DX002 (ip), vehicle: Klucel (hydroxypropylcellulose) (HPC) 111 % of control

CNC(=O)c1nc(C)c(C)[nH]c1=O
inactive: dose: 25.0 mg/kg/injection, schedule: Q01DX009 (ip), vehicle: water 98 % of control | dose: 50.0 mg/kg/injection, schedule: Q01DX009 (ip), vehicle: water 96 % of control | dose: 100.0 mg/kg/injection, schedule: Q01DX009 (ip), vehicle: water 98 % of control | dose: 100.0 mg/kg/injection, schedule: Q04DX003 (ip), vehicle: water 103 % of control | dose: 200.0 mg/kg/injection, schedule: Q01DX009 (ip), vehicle: water 89 % of control | dose: 200.0 mg/kg/injection, schedule: Q04DX003 (ip), vehicle: water 95 % of control

CCOP(=S)(N1CC1C)N1CC1C (stereo not drawn)
inactive: dose: 25.0 mg/kg/injection, schedule: Q01DX Z (ip), vehicle: carboxymethylcellulose (CMC) 103 % of control | dose: 50.0 mg/kg/injection, schedule: Q01DX Z (ip), vehicle: carboxymethylcellulose (CMC) 105 % of control | dose: 100.0 mg/kg/injection, schedule: Q01DX Z (ip), vehicle: carboxymethylcellulose (CMC) 108 % of control | dose: 200.0 mg/kg/injection, schedule: Q01DX Z (ip), vehicle: carboxymethylcellulose (CMC) 121 % of control

COC(=O)C(CCC(=O)O)NC(=O)OCc1ccccc1 (stereo not drawn)
inactive: [1] 89 % of control | dose: 50.0 mg/kg/injection, schedule: Q01DX001 (ip), vehicle: Klucel (hydroxypropylcellulose) (HPC) 94 % of control | [2] 97 % of control | dose: 100.0 mg/kg/injection, schedule: Q01DX001 (ip), vehicle: Klucel (hydroxypropylcellulose) (HPC) 103 % of control | [6] 96 % of control | dose: 200.0 mg/kg/injection, schedule: Q01DX001 (ip), vehicle: Klucel (hydroxypropylcellulose) (HPC) 97 % of control | [7] 86 % of control

Nc1ccccc1SC1CC(=O)N(c2ccc(F)cc2)C1=O (stereo not drawn)
inactive: dose: 100.0 mg/kg/injection, schedule: Q04DX003 (ip), vehicle: carboxymethylcellulose (CMC) 92 % of control | dose: 200.0 mg/kg/injection, schedule: Q04DX003 (ip), vehicle: carboxymethylcellulose (CMC) 92 % of control | dose: 400.0 mg/kg/injection, schedule: Q04DX003 (ip), vehicle: carboxymethylcellulose (CMC) 91 % of control

CCC(=O)c1ccc(OCC(O)CN2CCC(O)(c3ccccc3)CC2)cc1 (stereo not drawn)
inactive: [3] 98 % of control | dose: 25.0 mg/kg/injection, schedule: Q04DX003 (ip), vehicle: saline with Tween-80 97 % of control | [4] 89 % of control | dose: 50.0 mg/kg/injection, schedule: Q04DX003 (ip), vehicle: saline with Tween-80 105 % of control | [5] 95 % of control | [8] 100 % of control
